# Measurements published in patent US20090036437A1, “PHARMACEUTICAL COMPOSITION COMPRISING PHENOXAZINIUM COMPOUND AS AN ACTIVE INGREDIENT” (priority 2005, published 2009).
# Where two headings read alike, the source gives them in different places.
# Legend:
# Type in all cases: cell-based
# [1] = test system: Rat L6 cell (rat skeletal myoblast cell); experiment: in vitro growth-inhibiting assay of rat L6 cells
# Protocol: Rat L6 cell (rat skeletal myoblast cell) was cultured in RPMI-1640 culture medium supplemented with 1% of L-glutamine (200 mM) and fetal calf serum (10%) under 5% CO2 concentration at 37° C. A test sample was prepared by dissolving the test compounds according to the present invention and a positive control drug in DMSO to a predetermined concentration. After pre-culture had been finished, the culture medium containing the cells in a logarithmic phase was placed into each well of a 96-well culture plate, and the test sample comprising the predetermined amount of the test compound, and DMSO without the test compound were added to the wells in duplicate.
# After incubation of the culture plate for 72 hours in an incubator, a growth-inhibiting activity was assayed as follows. Alamar Blue aqueous solution (10 μL) was added to each well followed by a further two-hour culture. The culture plate was then attached to a fluorescence micro titer plate reader (Spectramax Gemeni XS; U.S. Molecular Device Co.), and the intensity of fluorescence at 588 nm was detected with an excitation wave length of 536 nm. A residual ratio of L6 cells was calculated with respect to a group treated with the test sample and a control group. A growth-inhibiting ratio for L6 cells was then calculated from the resulting residual ratio in accordance with the following equation to determine 50% growth-inhibiting concentration (EC50).
# Growth-inhibiting ratio (%)=[1−(C−A)/(B−A)]×100 • A: Initial number of cells; • B: Number of the cells in the control after 3 days; and • C: Number of the cells treated with the test sample after 3 days Determination of Pharmaceutical effect for Chloroquine-Resistant Malaria
# [2] = test system: Leishmania donovani (MHOM/ET/67/L82 strain); experiment: in vitro growth-inhibiting screening assay, protozoa of Leishmaniasis; conditions: amastigotes; 72 h, Alamar Blue; read-out: growth-inhibiting concentration (nM) Leishmania donovani
# Protocol: This test was done using the protozoa of Leishmania donovani (MHOM/ET/67/L82 strain). The protozoa were subcultured using Syrian Golden hamster and an amastigote was obtained therefrom. The amastigotes were cultured in SM medium supplemented with 10% of heat-treated fetal calf serum (pH 5.4) under CO2 concentration of 5%, at 37° C.
# A test sample was prepared by dissolving the test compounds according to the present invention and a positive control drug (Miltefosine) in DMSO to a predetermined concentration. Culture medium containing a predetermined number of the protozoa was added into each well of a 96-well culture plate, and the concentration of the amastigotes was measured by means of CASY cell analysis system (Dermany, Scharfe Co.). Test sample comprising the predetermined amount of the test compound, and DMSO without the test compound were added to the wells in duplicate.
# (§1) After incubation of the culture plate for 72 hours in an incubator, a growth-inhibiting activity was assayed as follows. Alamar Blue aqueous solution (10 μL) was added to each well followed by a further two-hour culture. The culture plate was then attached to a fluorescence micro titer plate reader (Spectramax Gemeni XS; U.S. Molecular device Co.), the intensity of fluorescence at 588 nm was detected with excitation wave length of 536 nm to calculate an infection ratio of the protozoa with respect to a group trated with the test sample and a control group. A growth-inhibiting ratio was then calculated from the resulting infection ratio in accordance with the following equation to determine 50% growth-inhibiting concentration (EC50).
# (§2) Growth-inhibiting ratio (%)=[1−(b−a)/(c−a)]×100 • a: Initial infection ratio; • b: Infection ratio of the test sample group; and • c: Infection ratio of the control group.
# A selective toxicity coefficient, which is used as an index for the selective toxicity for the protozoa of Leishmaniasis, was calculated by the following equation, and the pharmaceutical effect was determined.
# A selective toxicity coefficient=(EC50 value of the test sample for rat L6 cell)/(EC50 value of the test sample for the protozoa of Leishmaniasis).
# [3] = test system: Trypanosoma brucei rhodensiense (STIB 900 strain); experiment: in vitro growth-inhibiting screening assay, protozoa of African trypanosomiasis; conditions: for EC50: 72 h, Alamar Blue, read-out: 50% growth-inhibiting concentration (nM) Trypanosoma brucei rhod.
# Protocol: This test was done using a trypomastigote of the protozoa of Trypanosoma brucei rhodensiense (STIB 900 strain) ranging in blood stream. MEM medium sterilized by filtration was supplemented with 25 mM of N-2-hydroxyethylpiperazine-2-ethanesulfonic acid (HEPES), 1 g/L of glucose, 1% of MEM non-essential amino acids, 0.2 mM of 2-mercaptoethanol, 2 mM of sodium pyruvate, 1 mM of hypoxathine and 15% of heat-treated horse serum. The protozoa were cultured under CO2 concentration of 5%, at 37° C.
# A test sample was prepared by dissolving the test compounds according to the present invention and a positive control drug (Melarsoprol) in DMSO to a predetermined concentration. Culture medium containing the protozoa of 8×10^3, and the test sample comprising the predetermined amount of the test compound, and DMSO without the test compound were added into each well of 96-well culture plate to a final volume of 100 μL in duplicate.
# as §1, with “Device” for “device”, “treated” for “trated”
# as §2
# A selective toxicity coefficient, which is used as an index for the selective toxicity for the protozoa of African trypanosomiasis, was calculated by the following equation, and the pharmaceutical effect was determined.
# Selective toxicity coefficient=(EC50 value of the test sample for rat L6 cell)/(EC50 value of the test sample for the protozoa of African typanosomiasis)
# [4] = Table 3, 72 h, Alamar Blue, read-out: 50% growth-inhibiting concentration (nM) cytotoxicity L6
# [5] = Table 8, read-out: 50% growth-inhibiting concentration (nM) cytotoxicity L6
# [6] = Table 9, read-out: 50% growth-inhibiting concentration (nM) cytotoxicity L6
# [7] = Table 10, read-out: growth-inhibiting concentration (nM) Cytotoxicity L6
SMILES,EC50 [1],EC50 [2],EC50 [3],Selective toxicity ([3]; EC50 rat L6 cell / EC50 protozoa of African trypanosomiasis),"EC50 ([3]; Trypanosoma brucei, STIB900)","EC50 [1, 4]","EC50 [1, 5]","EC50 [1, 6]","EC50 [1, 7]"
CCN(CC)c1ccc2nc3ccc(=[N+](CC)CC)cc-3oc2c1.[Cl-] [A-1 (60% purity)],3950 nM,2810 nM,181 nM,,,,,,
CC[N+](CC)=c1ccc2nc3ccc(N(C)C)cc3oc-2c1 [Compound A-4],,,,9.4,497 nM,,,,
CCN(CC)c1ccc2nc3ccc(=[N+](CC)CC)cc-3oc2c1.[Cl-] [A-1 (>95% purity)],20500 nM,,,,,,,,
CCCC[N+](CCCC)=c1ccc2nc3ccc(N(CC)CC)cc3oc-2c1.[Cl-] [Compound A-6],,23 nM,67.2 nM,,,839 nM,839 nM,839 nM,839 nM
CN(C)c1ccc2nc3ccc(=[N+](C)C)cc-3oc2c1.CN(C)c1ccc2nc3ccc(=[N+](C)C)cc-3oc2c1.[Cl-].[Cl-].[Cl][Zn][Cl] [Compound A-3],,887 nM,565 nM,,,8870 nM,8870 nM,8870 nM,8870 nM
CCCC[N+](CCCC)=c1ccc2nc3ccc(N(C)C)cc3oc-2c1.[O-][Cl+3]([O-])([O-])[O-] [Compound A-7],,6 nM,113 nM,,,409 nM,409 nM,409 nM,409 nM
